Results on seven compounds are retold here after patent publication US8268635B2, “Methods of identifying agents that selectively activate p38 and/or NKkB signaling” (priority 2006, dated 2012).

Where no end group is shown, it is not given here.

One test concerns ERK1/ERK2. The experiment in a line: ERK1/ERK2 activation in neutrophils in suspension. In kind it is cell-based, human. The conditions noted are these: TNF, TNF70-80 15 min; PMA 100 nM 5 min. As to the method:
(§1) The cells were lysed and the lysate assessed by western blot analysis for the level of dual-phosphorylated ERK1/ERK2 (top panel) and ERK2 protein (bottom panel). […] The level of myelin basic protein phosphorylation was quantitated by an Instant Imager.
Neutrophils were prepared from peripheral blood of healthy donors by a rapid single-step technique (Kumaratilake, L. M., Rathjen, D. A., Mack, P., Widmer, F., Prasertsiriroj, V., and Ferrante, A. (1995) J. Clin. Invest. 95: 2315-2323) using Hypaque-Ficoll and according to the institution's guidelines on human ethics. […]
KHS (hereon referred to as “GCKR”) activity was assayed as described previously using myelin basic protein as a substrate (Shi, C. S., Leonardi, A., Kyriakis, J., Siebenlist, U., and Kerhl, J. H. (1999) J. Immunol. 163: 3279-3285). ASK-1 activation was determined in immunoprecipitates of ASK-1 by autophosphorylation (Kyriakis, J. M., and Auruch, J. (2001) Physiol. Rev. 81: 807-869). p38 and ERK activities were determined as described using myelin basic protein as a substrate (Hii, C. S., Huang, Z. H., Bilney, A., Costabile, M., Murray, A. W., Rathjen, D. A., Der, C. J., and Ferrante, A. (1998) J. Biol. Chem. 273: 19277-19282). […]

Another test concerns neutrophils. The test can be described thus: Neutrophil superoxide production, lucigenin chemiluminescence assay. It counts as cell-based, human.
For the next test, the system named is JNK. The test can be described thus: JNK phosphorylation in HL60 cells (western blot). It counts as cell-based. The following applies: 15 min; TNF 100 U/ml, anisomycin 2.5 μg/ml. In general terms: Immunoblotting shows a protein as a band on a membrane.
Test [1] relates to p38. The experiment in a line: p38 kinase activity in human neutrophils. In kind it is cell-based. As to the method:
as §1
Neutrophils were prepared from peripheral blood of healthy donors by a rapid single-step technique (Kumaratilake, L. M., Rathjen, D. A., Mack, P., Widmer, F., Prasertsiriroj, V., and Ferrante, A. (1995) J. Clin. Invest. 95: 2315-2323) using Hypaque-Ficoll and according to the institution's guidelines on human ethics. […] These were either used as cells in suspension or as adhered neutrophils by adding the cells to plasma coated plates as previously described (Powell, W., Gravel, S., Halwani, F., Hii, C. S., Huang, Z. H., Tan, A. M., and Ferrante, A. (1997) J. Immunol. 159: 2952-2959).
(§2) KHS (hereon referred to as “GCKR”) activity was assayed as described previously using myelin basic protein as a substrate (Shi, C. S., Leonardi, A., Kyriakis, J., Siebenlist, U., and Kerhl, J. H. (1999) J. Immunol. 163: 3279-3285). ASK-1 activation was determined in immunoprecipitates of ASK-1 by autophosphorylation (Kyriakis, J. M., and Auruch, J. (2001) Physiol. Rev. 81: 807-869). p38 and ERK activities were determined as described using myelin basic protein as a substrate (Hii, C. S., Huang, Z. H., Bilney, A., Costabile, M., Murray, A. W., Rathjen, D. A., Der, C. J., and Ferrante, A. (1998) J. Biol. Chem. 273: 19277-19282). […] A solid phase assay using glutathione-S-transferase (GST)-conjugated-jun (1-79) was employed to assay JNK activity (Hii, C. S., Huang, Z. H., Bilney, A., Costabile, M., Murray, A. W., Rathjen, D. A., Der, C. J., and Ferrante, A. (1998) J. Biol. Chem. 273: 19277-19282). Phosphorylated ASK-1, myelin basic protein and GST-jun (1-79) were fractionated on 8, 16 and 12% SDS polyacrylamide gels, respectively, and the bands were detected and radioactivity determined using an Instant Imager (Packard Instruments, Canberra, Australia).
(§3) The level of myelin basic protein phosphorylation was quantitated by an Instant Imager.

In test [2] the test system is p38. The experiment in a line: p38 activity in HUVEC (immunoprecipitation, myelin basic protein substrate). It counts as cell-based, human. The conditions noted are these: 5 min; TNF 1,000 U/ml, peptides 10 μM. As to the method: as §3, §2
Test [3] has as its system p38. The test can be described thus: p38 activation in 70Z/3 cells transfected with hTNFR1 constructs. It counts as cell-based, mouse. The following applies: 5 min; TNF 1000 U/ml, peptides 10 μM. As to the method: The cells were then lysed, protein contents quantified and subjected to p38 kinase assay by Western blot. The results are presented as the mean+−sem of 3 experiments.
The cells were maintained in RPMI-1640 medium with 4.5 g/L glucose, 2 mM L-glutamine, […] 2-mercaptoethanol and 10% FCS in an atmosphere of 95% air and 5% CO2. Cells were plated onto 10 cm plates at 4×10^7 cells in 15 ml culture medium. Before performing transient transfection, plasmid DNA (hTNFR1), kindly provided by Dr M. Kronke, Institute of Medical Microbiology and Hygiene, Medical Center University of Cologne, Koln, Germany (Adam, D., Wiegmann, K., Adam-Klages, S., Ruff A., and Kronke, M. (1996) J. Biol. Chem. 271: 14617-22), (20 μg in 1 ml of RPMI1640) was mixed with LipofectAMINE 2000 (Invitrogen) (60 μl in 1 ml of RPMI) and the mixture were left at room temperature for 20 min. The mixture was directly added to the cells and incubated for 24 h. The cells were washed twice with HBSS before use.

For `CCCCCCCCCCCCCC(=O)O[C@@H]1[C@@H](C)[C@@]2(O)[C@@H](C=C(CO)C[C@]3(O)C(=O)C(C)=C[C@@H]23)[C@@H]2C(C)(C)[C@]12OC(C)=O` [PMA, reference compound], the “activity/dual phosphorylation of ERK in neutrophils in suspension” value in the test with ERK1/ERK2 was “increased the dual phosphorylation of ERK1/ERK2”.
As for `C[S+]([O-])c1ccc(-c2nc(-c3ccncc3)c(-c3ccc(F)cc3)[nH]2)cc1` (stereo not drawn) [SB203580, reference compound], the “effect on TNF70-80 stimulated neutrophil chemiluminescence response” value in the test on neutrophils (pre-incubated with inhibitor 30 min, then 10 μM TNF70-80) was “significantly reduced”.
As for `COc1ccc(C[C@H]2NC[C@H](O)[C@H]2OC(C)=O)cc1` [anisomycin, reference compound], the “JNK phosphorylation in HL60 cells” value in the test with JNK is recorded as “increased JNK phosphorylation”.
Take EDSGTT [Peptide M4-3]: the “effect on TNF (mononuclear leukocyte fluid)-induced p38 activation in human neutrophils” value with p38 [1] (peptide pre-incubated with TNF medium (≈0.12 ng/ml TNF) 20 min, neutrophils 30 min) is listed as “inhibition of TNF (mononuclear leukocyte fluid)-induced p38 activation”.
Take “H-Gly-Gly-Asp-Pro-Gly-Ile-Val-Thr-His-Ser-OH (H-GGDPGIVTHS-OH) [control peptide 205, control peptide, reference compound]”: the “activity of p38 in HUVEC” value in the test with p38 [2] is listed as “failed to stimulate p38”. The “activity of p38 in neutrophils in suspension” value in the test on p38 [1] (5 min, TNF 100 or 1000 U/ml, TNF70-80 10-50 μM) is on record as “did not activate p38”. Moreover, the “p38 activation in 70Z/3 cells transfected with wild type hTNFR1” value in the test with p38 [3] is “failed to activate p38”.
Consider “H-Gly-Thr-Thr-OH (listed as Homo sapiens) [Peptide M4-2]”, for which, in the test with neutrophils (peptide mixed with TNF at 37° C. for 20 min, then added to neutrophils), the “effect on TNF-induced superoxide generation of neutrophils” value was “Inhibits TNF-Induced Superoxide Generation”.
With “His6-Leu-Lys-Pro-Gly-Thr-Thr-OH (HHHHHHLKPGTT-OH; listed as Homo sapiens) [Peptide M4]”, the “effect on TNF70-80-induced superoxide production in neutrophils” value in the test on neutrophils (TNFR1 fragment pre-incubated with neutrophils 30 min, then TNF70-80 (100 μg)) is recorded as “can block the biological activity of the TNF70-80”.
